US20070265208A1, “Association of calpain inhibitors and reactive oxygen species trapping agents” (priority 2000, published 2007)
Where “and” joins values, the source holds several entries; their conditions need not be identical. Equal entries are not always repeated. Non-standard residues stand in square brackets, D forms with d. Residues, ends and D or L forms follow the SMILES beside them. ξ: configuration not given here. *: point of attachment. ξF = NC(Cc1ccccc1)C(=O)O; Cbz = O=C(OCc1ccccc1)*

Assays:
human calpain I = biological target: T1, human calpain I (Homo sapiens, UniProt P07384); assay: Effects on human calpain I (acellular, Suc-Leu-Tyr-AMC fluorescence); type: biochemical; conditions: enzyme purified from human erythrocytes; 1 h at 25°C; read-out: Inhibition human calpain I, acellular [IC50 (nM)]
T1 construct: enzyme purified from human erythrocytes; purchased Calbiochem 208713; host or cells: human erythrocytes (native tissue source)
T1 sequence (P07384 1-714): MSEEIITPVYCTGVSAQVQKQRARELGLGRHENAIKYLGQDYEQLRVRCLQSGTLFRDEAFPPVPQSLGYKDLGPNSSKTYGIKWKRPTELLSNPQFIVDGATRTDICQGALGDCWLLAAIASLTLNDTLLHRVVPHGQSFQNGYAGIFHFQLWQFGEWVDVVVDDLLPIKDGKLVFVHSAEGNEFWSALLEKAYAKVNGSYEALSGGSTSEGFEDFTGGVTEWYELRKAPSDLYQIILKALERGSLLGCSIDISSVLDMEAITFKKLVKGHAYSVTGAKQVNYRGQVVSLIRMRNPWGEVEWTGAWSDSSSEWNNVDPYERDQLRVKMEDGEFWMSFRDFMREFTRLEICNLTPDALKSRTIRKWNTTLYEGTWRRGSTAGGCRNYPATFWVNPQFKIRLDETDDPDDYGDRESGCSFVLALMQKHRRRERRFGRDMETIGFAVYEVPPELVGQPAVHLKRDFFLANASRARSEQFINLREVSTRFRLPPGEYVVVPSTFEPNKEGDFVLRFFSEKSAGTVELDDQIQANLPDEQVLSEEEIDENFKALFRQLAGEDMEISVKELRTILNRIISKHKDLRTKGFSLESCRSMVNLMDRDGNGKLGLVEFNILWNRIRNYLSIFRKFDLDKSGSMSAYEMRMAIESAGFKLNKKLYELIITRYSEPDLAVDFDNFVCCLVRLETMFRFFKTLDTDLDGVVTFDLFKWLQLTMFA
T1 sequence (P04632 1-268 partner): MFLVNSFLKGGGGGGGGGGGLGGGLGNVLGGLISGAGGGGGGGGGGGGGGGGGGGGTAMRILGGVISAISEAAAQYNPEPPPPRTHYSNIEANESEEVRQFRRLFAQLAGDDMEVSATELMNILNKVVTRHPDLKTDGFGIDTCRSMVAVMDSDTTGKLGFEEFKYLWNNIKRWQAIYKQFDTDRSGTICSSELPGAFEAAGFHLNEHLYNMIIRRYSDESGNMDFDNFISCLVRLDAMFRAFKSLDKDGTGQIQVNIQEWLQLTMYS
Protocol: The test consists of measuring the activity of the enzyme (enzyme purified from human erythrocytes) which is incubated in a buffer in the presence of a peptide substrate coupled with a fluorochrome (amino-methylcourmarin, AMC) and calcium. The enzyme activated by the calcium, proteolyses the substrate and releases the AMC fragment. The AMC released fluoresces at 460 nm under excitation at 380 nm. The activity of the enzyme is therefore proportional to the quantity of fluorescence i.e. of free AMC fragment. The fluorescence (380/460 nm) is measured using a multi-well fluorimeter (Victor 2, Wallac).
Assay is carried out in 96-well microplates with transparent bottoms and black walls in which 10 μl per well of substance to be tested in DMSO 10%, 45 μl of reaction mixture containing the human calpain I at 2.2 U/ml (Calbiochem, ref: 208713), the Suc Leu Tyr-AMC substrate (Bachem, ref: I-1355) at 1.1 mM in a buffer (Tris-HCl 110 mM; NaCl 110 mM; EDTA 2.2 mM; EGTA 2.2 mM; mercaptoethanol 1.1 mM) are distributed. The reaction is initiated by adding 45 μl of CaCl2 22mM. To determine the background noise, control wells without calcium are added to the plate (10 μL DMSO 10%+45 μL of buffer with the enzyme and the susbtrate +45 μL H2O). In order to determine the total activity of the enzyme control wells containing no product are added to the plate (10 μL DMSO 10%+45 μL of buffer with the enzyme and the substrate +45 μL of CaCl2 22 mM ). Each concentration of the products (0.1 nM to 10 μM) is tested in duplicate. The plates are shaken and incubation takes place for one hour at 25° C. in darkness. The fluorescence is read at 380/460 nm using the Victor.

rat glial cells C6 = assay: Protection from necrosis induced by maitotoxin, C6 (wst-1 viability); type: cell-based
Protocol: Human neuroblastomas SHSY5Y and rat glial cells C6 are seeded at 25 000 cells per well in 96-well plates in DMEM 10% FBS for 24 hours. The L6 rat myoblasts are seeded at 1000 cells per well in DMEM 10% FBS on 96-well microplates coated beforehand with gelatin 0.5% PBS. After culture for 3 days the medium is removed and replaced with a differentiation medium (DMEM+10 μg/ml of insulin+100 μg/ml of transferrin). 50 μl of product A plus 50 μl of solvent or 50 μl of product B are placed in the wells. After incubation for 1 hour at 37° C. under an atmosphere of 5% CO2, 10 μl of maitotoxin is added in order to obtain a final concentration of 0.1 nM to 1 nM (according to the cell type). After incubation for 3 hours at 37° C. under an atmosphere of 5% CO2, the cell viability is determined by adding 10 μl of tetrazolium salts (wst-1, Roche, ref: 1644807). The tetrazolium salts are cleaved into formazan molecules by mitochondrial dehydrogenases. The quantity of formazan formed is directly correlated to the number of metabolically active cells in the culture. Measurement of the absorbance of the formazan is carried out using a multiwell photometer at a wavelength of 420 nm against a reference wavelength of 620 nm.
The theoretical effect was obtained by multiplying the percentage of dead cells in the presence of product A by the percentage of dead cells in the presence of product B (Table 3). The percentage protection against cell death induced by MTX being the percentage of cells kept alive in the presence of the product or products.
In the light of the previous results, the combination of Example 1 with product A and product B at a rate of 100 μM of each of the products is carried out on human neuroblastomas (SHSY5Y; (Table 5A) and on glial cells with 25 μM of product A and 50 μM of product B (C6; Table 5B) on a larger number of cases.

[1] = test system: calpain activity in rat glial cells (C6); assay: In situ calpain activity in rat glial cells C6 stimulated by maitotoxin; type: cell-based; conditions: read-out: Inhibition human calpain I, in situ (C6) [IC50 (nM)]; n = 3; maitotoxin 1 nM; 1 h 30 min
Protocol: Human neuroblastomas SHSY5Y and rat glial cells C6 are seeded at a rate of 50,000 and 25,000 cells respectively per well on 96-well plates in DMEM 10% FBS. The next day, the cells which have adhered are washed 3 times in DMEM medium without serum and 40 mM Hepes. 100 microlitres of product B is placed in the wells. After incubation for 1 hour at 37° C. under an atmosphere of 5% CO2, 10 μl containing the fluorescent substrate of calpain (Suc-Leu-Tyr-AMC) and maitotoxin (Sigma, ref: M-9159), in order to obtain a final concentration in the well of 100 μM and of 1 nM respectively are added.
In order to determine the total activity of the cell enzyme, wells containing no product are added to the plate (100 μL DMSO 100th plus 10 μl of MTX and substrate). The background noise is determined by adding control wells with no MTX. Each concentration of the products (0.3 μM to 200 μM for the SHSY5Y's and 0.01 μM to 100 μM for the C6's) is tested in triplicate. The plates are shaken, the fluorescence is read at 380/460 nm using the Victor at T zero. Incubation takes place for four hours for the SHSY5Y and 1 hour 30 minutes for the C6 cells at 30° C. in darkness.

[2] = test system: lipidic peroxidation of rat cerebral cortex homogenate; assay: In vitro lipidic peroxidation (Fenton reaction, MDA) in rat cerebral cortex membranes; type: biochemical; conditions: iron/ascorbate, read-out: Inhibition of lipidic peroxidation [IC50 (μM)]
Protocol: The test consists of inducing lipidic peroxidation by Fenton reactions in the presence of iron and ascorbate. The degree of lipidic peroxidation is determined by the concentration of malonaldehyde (MDA). The MDA produced by the lipidic peroxidation of unsaturated fatty acids is a good indicator of lipidic peroxidation (Esterbauer et al, 1990; Meth. Enzymol. 186: 407421). For this colorimetric test, the condensation of a molecule of MDA with two molecules of chromogenic reagent R (N-methyl-2-phenylindole) produces a stable chromophore the maximum absorbance wavelength of which is equal to […].
The membranes are prepared from the cortexes of male Sprague Dawley rats weighing 200 to 250 g. The animals are sacrificed by decapitation and the brains are immediately removed and rinsed in cold Tris HCl 20 mM pH 7.4. The cortexes, after dissection and removal of the white matter, are then ground with the Thomas potter, in Tris HCl buffer 20 mM pH 7.4 at 4° C. The homogenate obtained is centrifuged at low speed in order to eliminate the large debris (515 g for 15 minutes at 4° C.). The supernatant is then distributed into polycarbonate centrifugation tubes and centrifuged at 51500 g for 25 min at 4° C. The membrane pellets are kept at −80° C.
On the day of the experiment, the frozen membranes are resuspended at a concentration of 0.5 equivalent grams of cortex per 5 ml of Tris HCl buffer 20 mM pH 7.4 and homogeneized using a combitips. In 96-well “deep-well” 1 ml polypropylene plates with a conical base, 5 μl per well of the product to be tested or of solvent is mixed with 40 μl of rat cerebral cortex homogenate by centrifugation (800 rpm). The plates are covered with a self-adhesive aluminium sheet and incubated at 37° C. for 15 minutes under agitation. […]
The membranes and the supernatants are separated by filtration under vacuum on a 96-well plate with a multiscreen filtering base NA (Millipore, ref: MANANLY 50). The absorbance of the supernatants recovered in the 96-well plates is read using a photometer.

[3] = single product at 100 μM, n = 1

O=C(O)C(S)=Cc1ccc(I)cc1 [EXAMPLE 4 B, 3-(4-iodophenyl)-2-mercapto-2-propenoic acid]
IC50 (human calpain I): 5140 nM | Protection from necrosis induced by MTX on C6 (rat glial cells C6; single product at 25 μM): 0.69% | Protection from necrosis induced by MTX on C6 (rat glial cells C6; [3]): 0.36% and 2.75%

CC(C)C[C@H](NC(=O)OCc1ccccc1)C(=O)NC(C=O)Cc1ccccc1 (stereo partly drawn) [EXAMPLE 2 B, benzyl (1S)-1-{[(1-benzyl-2-oxoethyl)amino]carbonyl)-3-methylbutylcarbamate] (Cbz-Leu-[ξF]-aldehyde)
IC50 (human calpain I): 8 nM | IC50 [1]: 2200 ± 290 nM | Protection from necrosis induced by MTX on C6 (rat glial cells C6; single product at 50 μM, n = 3 for Example 2, else n = 1): 12.05 ± 2.82% | Protection from necrosis induced by MTX on C6 (rat glial cells C6; single product at 50 μM, n = 3 for Example 2, else n = 1, listed as Z-Leu-Phe-H): inactive

Oc1ccc(Nc2ccccc2)cc1 [EXAMPLE 5 A, 4-hydroxydiphenylamine]
IC50 [2]: 0.093 µM | Protection from necrosis induced by MTX on C6 (rat glial cells C6; [3]): 17.90% | Protection from necrosis induced by MTX on C6 (rat glial cells C6; single product at 100 μM, n = 1, listed as EXAMPLE 6 A): 9.43%

CC(=O)N[C@@H](CC(C)C)C(=O)N[C@@H](CC(C)C)C(=O)N[C@H](C=O)CCCNC(=N)N [LEUPEPTIN, leupeptin]
IC50 (human calpain I): 73 nM
